Where two headings read alike, the source gives them in different places.
Experiments:
[1] = target: T1, β-amyloid-huAChE aggregation complex (Homo sapiens, UniProt P22303); test: Inhibition of β-amyloid aggregation (Congo Red binding); assay type: biochemical; conditions: Aβ1-40 0.1 mM, Aβ:huAChE 200:1, 48 hours
T1 construct: purchased Sigma-Aldrich (huAChE); rPeptide (Aβ1-40)
Protocol: Inhibition of β-Amyloid Aggregation
The generation of AChE-Aβ complexes were carried out as described previously [Alvarez, A et al. J. Neurosci., 1998, 18, 3213-3223; Muñoz, F. J.; Inestrosa, N. C. FEBS Let., 1999, 450, 205-209]. Stock solutions of Aβ1-40 (rPeptide, Georgia USA) at 3.5 mM were dissolved in PBS (pH 7.4) after HFIP treatment to obtain monomeric starting material, according to manufacture's recommendations. For co-incubation experiments, 0.1 mM of peptide was mixed with human recombinant acetylcholinesterase (huAchE, Sigma-Aldrich), in the same buffer at molar ratio Aβ:huAChE 200:1, and stirred for 48 hours in a microtiter plate at room temperature. The fibrils obtained were characterized by Congo Red (CR) binding.
For the inhibition of β-amyloid aggregation, the compounds tested were used at the IC50 defined in the previous paragraph of the biological evaluation, 50 μM propidium iodide was used as reference [Inestrosa, N. C et al., J. Neuron, 1996, 16, 881-891].
To quantify the amount of fibrils aggregated, the binding to CR was done as described [Klunk, W E.; Pettegrew, J W.; Abraham, D J. J. Hystochem Cytochem., 1989, 8, 1293-1297]. Briefly, 5.5 μl aliquot of the aggregation mixture was added to 132 μl of a 25 μM CR solution (100 mM phosphate buffer pH 7.4, 150 mM NaCl), and incubated for 30 minutes at room temperature. Absorbance was measured at 480 and 540 nm and the molarity of aggregates calculated by CR(M)=(A540/25295)−(A480/46306).

[2] = tested on: human neuroblastoma cell line SH-SY5Y; test: Toxicity measurement (LDH release); assay type: cell-based; conditions: 24 hours exposure
Protocol: The cytotoxicity effect of the molecules was tested in the human neuroblastoma cell line SH-SY5Y. These cells were cultured in 96-well plates in DULBECCO'S MOD EAGLE medium, supplemented with 10% fetal bovine serum and 1% penicillin/streptomycin, and grown in a 5% CO2 humidified incubator at 37° C.
The cells were plated at 10^4 cells for each well, at least, 48 hours before the toxicity measure. Cells were exposed for 24 hours to the compounds at different concentrations (from 10^−5 to 10^−9), quantitative assessment of cell death was made by measurement of the intracellular enzyme lactate dehydrogenase (LDH) (citotoxicity detection kit, Roche). The quantity of LDH was evaluated in a microplate reader Anthos 2010, at 492 and 620 nm. Controls were taken as 100% viability.

AChE peripheral site = AChE peripheral site (Bos taurus, UniProt P23795); test: Propidium competition (fluorescence); assay type: binding; conditions: 10 μM AchE, 20 μM propidium iodide, pH 8.0
AChE peripheral site, sequence (P23795 other isoform, or with tags, fused parts or gaps): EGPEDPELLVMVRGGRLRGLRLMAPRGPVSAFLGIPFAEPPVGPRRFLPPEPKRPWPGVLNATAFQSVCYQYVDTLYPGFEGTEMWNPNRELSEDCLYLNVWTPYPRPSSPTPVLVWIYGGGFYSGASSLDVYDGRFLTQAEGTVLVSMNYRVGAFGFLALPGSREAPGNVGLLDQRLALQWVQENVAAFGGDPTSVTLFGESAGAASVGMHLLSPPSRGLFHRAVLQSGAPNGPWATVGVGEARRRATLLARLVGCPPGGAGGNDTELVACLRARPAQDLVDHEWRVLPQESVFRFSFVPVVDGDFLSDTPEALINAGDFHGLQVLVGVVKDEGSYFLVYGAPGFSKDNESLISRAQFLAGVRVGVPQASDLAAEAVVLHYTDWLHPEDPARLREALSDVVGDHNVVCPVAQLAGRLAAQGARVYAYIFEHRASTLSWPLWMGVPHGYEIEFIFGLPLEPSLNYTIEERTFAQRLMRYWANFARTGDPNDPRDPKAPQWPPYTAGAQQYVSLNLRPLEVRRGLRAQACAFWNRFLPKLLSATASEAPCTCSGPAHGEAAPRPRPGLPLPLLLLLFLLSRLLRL
Protocol: Fluorescence was measured in a Fluostar optima plate reader (BMG). Measurements were carried out in 100 μl solution volume, in 96-well plates. The buffer used wad 1 mM Tris/HCl, pH 8.0. 10 μM AchE was incubated, at least 6 hours, with the molecules at different concentrations. 20 μM propidium iodide was added 10 min before fluorescence measurement. The excitation wavelength was 485 nm, and that of emission, 620 nm.

BuChE from human serum = target: T2, BuChE from human serum (Homo sapiens, UniProt P06276); test: Butyrylcholinesterase (BuChE) inhibition, Ellman colorimetric method; assay type: biochemical
T2 construct: 0.01 unit BuChE from human serum; from tissue; host or cells: human serum
T2 sequence (P06276 29-602): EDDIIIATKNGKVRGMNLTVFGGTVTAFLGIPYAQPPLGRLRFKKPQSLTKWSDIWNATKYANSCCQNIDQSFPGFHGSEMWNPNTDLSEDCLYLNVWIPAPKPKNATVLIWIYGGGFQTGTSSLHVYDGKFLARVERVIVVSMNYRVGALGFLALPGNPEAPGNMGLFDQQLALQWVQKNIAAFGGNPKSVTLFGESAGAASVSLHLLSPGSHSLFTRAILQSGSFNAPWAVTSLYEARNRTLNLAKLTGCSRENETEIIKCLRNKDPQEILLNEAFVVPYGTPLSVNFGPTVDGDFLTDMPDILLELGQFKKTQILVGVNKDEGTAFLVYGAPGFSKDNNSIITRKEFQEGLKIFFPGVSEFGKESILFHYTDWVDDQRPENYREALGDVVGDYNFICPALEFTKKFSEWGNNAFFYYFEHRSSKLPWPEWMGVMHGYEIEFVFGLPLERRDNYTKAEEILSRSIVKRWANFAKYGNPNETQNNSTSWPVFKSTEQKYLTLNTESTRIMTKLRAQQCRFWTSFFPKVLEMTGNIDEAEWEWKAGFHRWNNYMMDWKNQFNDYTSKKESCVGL
Protocol: Butyrylcholinesterase (BuChE) Inhibition (from Human Serum)
BuChE inhibitory activity was evaluated at 30° C. by the colorimetric method reported by Ellman. The assay solution consisted of 0.01 unit BuChE from human serum, 0.1 M sodium phosphate buffer pH 8, 0.3 mM 5,5′-dithiobis(2-nitrobenzoic acid) (DTNB, Ellman's reagent), and 0.5 mM butyrylthiocholine iodide as the substrate of the enzymatic reaction. Enzyme activity was determined by measuring the absorbance at 405 nm during 5 minutes with a microplate reader Digiscan 340T. The tested compounds were preincubated with the enzyme for 10 minutes at 30° C. The reaction rate was calculated with, at least, triplicate measurements. The IC50 is defined as the concentration of each compound that reduces a 50% the enzymatic activity with respect to that without inhibitor.

[3] = target: T3, AChE (from bovine erythrocytes) (Bos taurus, UniProt P23795); test: biochemical; assay type: biochemical
T3 construct: 0.02 unit AChE (Sigma Chemical Co. from bovine erythrocytes); purchased Sigma Chemical Co; host or cells: bovine erythrocytes (natural source)
T3 sequence (P23795 other isoform, or with tags, fused parts or gaps): as the sequence (P23795 other isoform, or with tags, fused parts or gaps) above
Protocol: Acetylcholinesterase (AChE) Inhibition (from Bovine Erythrocytes)
AChE inhibitory activity was evaluated at 30° C. by the colorimetric method reported by Ellman [Ellman, G. L.; Courtney, K. D.; Andres, B.; Featherstone, R. M. Biochem. Pharmacol. 1961, 7, 88-95]. The assay solution consisted of 0.1 M phosphate buffer pH 8, 0.3 mM 5,5′-dithiobis(2-nitrobenzoic acid) (DTNB, Ellman's reagent), 0.02 unit AChE (Sigma Chemical Co. from bovine erythrocytes), and 0.5 mM acetylthiocholine iodide as the substrate of the enzymatic reaction. The compounds tested were added to the assay solution and pre incubated with the enzyme for 5 min at 30° C. After that period, the substrate was added. […] The compound concentration producing 50% of AChE inhibition (IC50) was determined.

[4] = BuChE from human serum, 30° C., pH 8, read-out: IC50 BuChE
[5] = AChE from bovine erythrocytes, 30° C., pH 8, read-out: IC50 AChE

T1 sequence (P22303 32-614, one chain of several): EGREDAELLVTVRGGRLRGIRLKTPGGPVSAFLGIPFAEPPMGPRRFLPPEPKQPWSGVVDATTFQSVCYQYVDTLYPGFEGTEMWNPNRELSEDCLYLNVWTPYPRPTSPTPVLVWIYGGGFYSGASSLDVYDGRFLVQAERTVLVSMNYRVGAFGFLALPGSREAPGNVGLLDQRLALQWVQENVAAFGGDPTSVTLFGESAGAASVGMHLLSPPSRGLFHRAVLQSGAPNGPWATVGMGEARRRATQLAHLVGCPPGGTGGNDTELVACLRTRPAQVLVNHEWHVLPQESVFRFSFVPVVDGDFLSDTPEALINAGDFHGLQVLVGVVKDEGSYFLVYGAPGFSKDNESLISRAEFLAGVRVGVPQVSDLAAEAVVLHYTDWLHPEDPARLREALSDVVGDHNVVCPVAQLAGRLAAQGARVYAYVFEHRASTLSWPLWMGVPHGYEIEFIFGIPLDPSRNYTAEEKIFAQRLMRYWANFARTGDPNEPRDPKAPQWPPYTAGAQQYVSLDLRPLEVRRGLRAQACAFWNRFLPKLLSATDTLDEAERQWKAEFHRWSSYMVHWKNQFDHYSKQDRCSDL

SMILES	reduction in the β-amyloid-huAChE aggregation complex ([1]; 50 μM propidium iodide as reference)	Toxicity [2]	Propidium competition (AChE peripheral site)	IC50 (BuChE from human serum; [4])	IC50 [3, 5]	IC50 (BuChE from human serum)	reduction in the β-amyloid-huAChE aggregation complex ([1]; compound used at its IC50)	IC50 [3]
CC[N+](C)(CC)CCC[n+]1c(-c2ccccc2)c2cc(N)ccc2c2ccc(N)cc21 [propidium iodide, reference compound]	10%							
O=C(NCCCCCCCNc1c2c(nc3cc(Cl)ccc13)CCCC2)c1c[nH]c2ccccc12 [Compound 12, 1H-Indole-3-carboxylic acid [7-(6-chloro-1,2,3,4-tetrahydro-acridin-9-ylamino)-heptyl]-amide]		>10 µM	100 µM	19 nM	36 nM			
CN(CCCNC(=O)CCc1c[nH]c2ccccc12)CCCNc1c2c(nc3cc(Cl)ccc13)CCCC2 [Compound 9, N-(3-{[3-(6-chloro-1,2,3,4-tetrahydro-acridin-9-ylamino)-propyl]-methyl-amino}-propyl)-3-(1H-indol-3-yl)-propionamide]		>100 µM	10 µM	7.57 nM	2.88 nM			
O=C(NCCCCCCNc1c2c(nc3cc(Cl)ccc13)CCCC2)OCCc1c[nH]c2ccccc12 [Compound 24, [6-(6-Chloro-1,2,3,4-tetrahydro-acridin-9-ylamino)-hexyl]-carbamic Acid 2-(1h-indol-3-yl)ethyl Ester]		>10 µM	100 µM		0.7 nM	3.2 nM		
O=C(CCc1c[nH]c2ccccc12)NCCCCCCNc1c2c(nc3cc(Cl)ccc13)CCCC2 [Compound 3]		100 µM	1000 µM	2.9 nM	0.02 nM		15%	
O=C(CCc1c[nH]c2ccccc12)NCCCCCCCCCCNc1c2c(nc3cc(Cl)ccc13)CCCC2 [Compound 7, N-[10-(6-Chloro-1,2,3,4-tetrahydro-acridin-9-ylamino)-decyl]-3-(1H-indol-3-yl)-propionamide]		>100 µM	10 µM	54 nM	21.9 nM			
O=C(CCc1c[nH]c2ccccc12)NCCCCCCCCNc1c2c(nc3cc(Cl)ccc13)CCCC2 [Compound 5, N-[8-(6-Chloro-1,2,3,4-tetrahydro-acridin-9-ylamino)-octyl]-3-(1H-indol-3-yl)propionamide]		10 µM	10 µM	5.7 nM	0.5 nM			
O=C(CCc1c[nH]c2ccccc12)NCCCCCNc1c2c(nc3ccccc13)CCCC2 [Compound 2, 3-(1H-Indol-3-yl)-N-[5-(1,2,3,4-tetrahydro-acridin-9-ylamino)-pentyl]-propionamide]		>100 µM	10 µM	1 nM	70 nM			
O=C(NCCCCCCNc1c2c(nc3cc(Cl)ccc13)CCCC2)c1c[nH]c2ccccc12 [Compound 11, 1H-Indole-3-carboxylic acid [6-(6-chloro-1,2,3,4-tetrahydro-acridin-9-ylamino)-hexyl]-amide]		>10 µM	100 µM	1.7 nM	33 nM			
O=C(NCCCCCNc1c2c(nc3cc(Cl)ccc13)CCCC2)c1c[nH]c2ccccc12 [Compound 10, 1H-Indole-3-carboxylic acid [5-(6-chloro-1,2,3,4-tetrahydro-acridin-9-ylamino)-pentyl]-amide]		>10 µM	100 µM	9.5 nM	180 nM			
O=C(CCc1c[nH]c2ccccc12)NCCCCCCCNc1c2c(nc3cc(Cl)ccc13)CCCC2 [Compound 4, N-[7-(6-Chloro-1,2,3,4-tetrahydro-acridin-9-ylamino)-heptyl]-3-(1H-indol-3-yl)-propionamide]		10 µM	10 µM	0.1 nM	0.06 nM			
O=C(NCCCCCCCNc1c2c(nc3cc(Cl)ccc13)CCCC2)c1n[nH]c2ccccc12 [Compound 21, 1H-Indazole-3-carboxylic acid [7-(6-chloro-1,2,3,4-tetrahydroacridin-9-ylamino)heptyl]-amide]		>10 µM	100 µM	79 nM	95 nM			
O=C(CCc1c[nH]c2ccccc12)NCCCCCCCCCNc1c2c(nc3cc(Cl)ccc13)CCCC2 [Compound 6, N-[9-(6-Chloro-1,2,3,4-tetrahydro-acridin-9-ylamino)-nonyl]-3-(1H-indol-3-yl)-propionamide]		>100 µM	>100 µM	9.6 nM				
O=C(Cc1c[nH]c2ccc(Br)cc12)NCCCCCCCNc1c2c(nc3cc(Cl)ccc13)CCCC2 [Compound 18, 2-(5-Bromo-1H-indol-3-yl)-N-[7-(6-chloro-1,2,3,4-tetrahydro-acridin-9-ylamino)-heptyl]-acetamide]		>10 µM	100 µM	1.7 nM				0.63 nM
Clc1ccc2c(NCCc3c[nH]c4ccccc34)c3c(nc2c1)CCCC3 [Comparative Example, N-[2-3(Indolyl)ethyl]-6-chlorotacrine, reference compound]					537 nM			
O=C(NCCCCCCCCNc1c2c(nc3cc(Cl)ccc13)CCCC2)c1c[nH]c2ccccc12 [Compound 13, 1H-Indole-3-carboxylic acid [8-(6-chloro-1,2,3,4-tetrahydro-acridin-9-ylamino)octyl]-amide]		>10 µM	10 µM	22.4 nM	46 nM			
O=C(CCCc1c[nH]c2ccccc12)NCCCCCCNc1c2c(nc3cc(Cl)ccc13)CCCC2 [Compound 16, N-[6-(6-Chloro-1,2,3,4-tetrahydro-acridin-9-ylamino)-hexyl]4-(1H-Indol-3-yl)-butyramide]		>10 µM	100 µM	5.6 nM	0.48 nM			
CN(CCCNC(=O)CCc1c[nH]c2ccccc12)CCCNc1c2c(nc3ccccc13)CCCC2 [Compound 8, N-(3-{[3-(1,2,3,4-tetrahydro-acridin-9-ylamino)-propyl]-methyl-amino}-propyl)-3-(1H-indol-3-yl)propionamide]		>100 µM	1000 µM	0.03 nM	147 nM		17%	

Source: patent US7910739B2, “Acetylcholinesterase dual inhibitors” (priority 2003, dated 2011)
